Laboratory results: patent USRE47193E1, “Selectively substituted quinoline compounds” (EISAI R&D MANAGEMENT CO., LTD., priority 2013, dated 2019)
pIC50: −log10 of the molar value.

The compounds below were run on Human TLR7/8 (assay: Human PBMC cell-based assay, TLR7/8 stimulus (RNA-Ig), cytokine ELISA). Conditions: primary human PBMC assay, TLR7/8 potency; ligand not given; read-out: Human PBMCs IC50.
Experimental: Human PBMC Cell-Based Assay. Human peripheral blood mononuclear cells (PBMC) were isolated from freshly-drawn heparinized (10 USP units/ml, Hospira, Lakeforest, Ill.) healthy donor whole blood by density gradient (Histopaque® 1077, Sigma, Inc., St. Louis, Mo.). Briefly, 25 ml blood was diluted with 15 ml PBS (without Ca^2+, Mg^2+) in a 50 ml conical tube, and 12 ml Histopaque was underlaid using a spinal needle. Tubes were centrifuged for 45 minutes at 1200 rpm (350×g), and PBMC were collected from the buffy coat. Cells were then washed twice in PBS, and red blood cells were lysed by suspension in 5 ml ammonium chloride solution (1× Red Blood Cell Lysis Buffer, eBioscience) for 5 minutes at room temperature. After a final wash in PBS, PBMC were resuspended at a final concentration of 2×10^6/ml in RPMI-1640 media with L-glutamine (Invitrogen) and supplemented with 25 mM HEPES (Mediatech, Inc, Manassas Va.), 10% fetal bovine serum (HyClone, Logan, Utah), and Penicillin-Streptomycin-Glutamine (Mediatech) and plated at 100 ul/well (2×10^5 cells/well) in tissue culture treated 96-well plates (Falcon).
Antagonist compounds solubilized and serial diluted in 100% DMSO were added in triplicate to cells to yield a final concentration of 0.1% DMSO (v/v). Hydroxychloroquine (Acros Organics) solubilized and serial diluted in PBS was added in triplicate to cells. PBMC were incubated with antagonist compounds or HCQ for 30 minutes at 37° C., 5% CO2 before adding various TLR agonist reagents in 100 ul complete media per well as follows (final concentrations indicated): R848 (Resiquimod; GLSynthesis, Worcester, Mass.) at 1 uM for TLR7 and TLR8, LPS (Sigma) at 10 ng/ml for TLR4, and CpG-2216 (InvivoGen) at 5 ug/ml for TLR9. To prepare a TLR7/8 agonist that mimics RNA-containing auto-antibody immune complexes in lupus patients, a 26-mer RNA with a sequence derived from human U1 snRNA stem loop IV [(sequence: […]-[…] (SEQ ID NO: 2) with phosphorothioate backbone] was synthesized (Dharmacon, Inc., Lafayette, Colo.), which has been shown previously to be a potent TLR7 and TLR8 agonist. This RNA molecule was diluted to 2.5 μM in serum-free RPMI, and mouse anti-human single stranded DNA monoclonal antibody (MAB3034, Millipore, Inc., Billerica, Mass.), which also cross-reacts with RNA, was added at a 1:25 dilution or at 1 ug/ml. The resulting “RNA-Ig” stimulus was incubated at room temperature for 15-30 minutes before adding to cells. PBMC were incubated with the various TLR agonists for 20 hours at 37° C., 5% CO2. Cell culture supernatants were collected, and levels of various human cytokines were assessed as indicated by standard ELISA procedure according to the manufacturer's recommended protocol (BD Biosciences, Inc., San Diego, Calif.). In a subsequent assay (Table 6) the ability of ER-899742 to block stimulation of normal PBMC by various TLR7/8 ligands, but not DNA-mediated activation of TLR9, was examined. In this assay cells were plated at 1×10^5 cells/well in 100 ul in 96-well plates.

Compound	pIC50
CC1CCN(CC2CN(c3ccc(C#N)c4ncccc34)CC(C)O2)C1 (centres unmarked) [ER-886868]	7.30
CC1CN(c2ccc(C#N)c3ncccc23)CC(CN2C(C)CCCC2C)O1 (centres unmarked) [ER-886950]	6.94
CC1CN(c2ccc(C#N)c3ncccc23)CC(CN2CCCC(O)C2)O1 (centres unmarked) [ER-886951]	7.10
CC1CN(c2ccc(C#N)c3ncccc23)CC(CN2CCCCC2C)O1 (centres unmarked) [ER-886957]	7.77
CCC1CCCCN1CC1CN(c2ccc(C#N)c3ncccc23)CC(C)O1 (centres unmarked) [ER-886958]	7.47
CC1CCN(C[C@H]2CN(c3ccc(C#N)c4ncccc34)C[C@@H](C)O2)CC1 [ER-887141]	7.31
CC1CCCC(NCC2CN(c3ccc(C#N)c4ncccc34)CC(C)O2)C1 (centres unmarked) [ER-887146]	7.42
C[C@@H]1CN(c2ccc(C#N)c3ncccc23)C[C@H](CNc2cc(-c3ccccc3)ccn2)O1 [ER-887252]	8.70
CC1CN(CC2CN(c3ccc(C#N)c4ncccc34)CC(C)O2)C(C)CN1 (centres unmarked) [ER-887260]	8.40
CC1CN(c2ccc(C#N)c3ncccc23)CC(CN2CC(O)CC2CO)O1 (centres unmarked) [ER-887262]	6.99
C[C@@H]1CN(c2ccc(C#N)c3ncccc23)C[C@H](CNc2cccc(-c3ccccc3)n2)O1 [ER-887589]	7.44
N#Cc1ccc(N2CCOC(CNc3ccccn3)C2)c2cccnc12 (centres unmarked) [ER-887612]	7.28
Cc1cc(C=O)cc(-c2ccc(C#N)c3ncccc23)c1 [ER-888200]	7.80
C[C@@H]1CN(c2ccc(C#N)c3ncccc23)C[C@H](CN2CCCCC2)O1 [ER-888202]	8.10
C[C@@H]1CN(c2ccc(C#N)c3ncccc23)C[C@H](CN2CCOCC2)O1 [ER-888203]	6.98
C[C@@H]1CN(c2ccc(C#N)c3ncccc23)C[C@H](CN2C[C@@H](C)O[C@@H](C)C2)O1 [ER-888204]	7.66
CC1CN(CC2CN(c3ccc(C#N)c4ncccc34)CC(C)O2)CC(CO)O1 (centres unmarked) [ER-888205]	7.40
CC1CN(c2ccc(C#N)c3ncccc23)CC(CN2CCN(c3ccccn3)CC2)O1 (centres unmarked) [ER-888285]	7.85
CC1CN(c2ccc(C#N)c3ncccc23)CC(CN2CCN(c3ccncc3)CC2)O1 (centres unmarked) [ER-888286]	6.65
C[C@@H]1CN(c2ccc(C#N)c3ncccc23)C[C@H](CNc2ccc3cccnc3n2)O1 [ER-888289]	7.96
C[C@@H]1CN(c2ccc(C#N)c3ncccc23)C[C@H](CN2CCN(C(N)=O)CC2)O1 [ER-888330]	6.81
CC1CN(c2ccc(C#N)c3ncccc23)CC(CN2CCC(C3CCCCC3)CC2)O1 (centres unmarked) [ER-888479]	7.04

Compound	pIC50
C[C@@H]1CN(c2ccc(C#N)c3ncccc23)C[C@H](Cn2cc(C3CCCCC3)nn2)O1 [ER-888603]	8.15
C[C@@H]1CN(c2ccc(C#N)c3ncccc23)C[C@H](Cn2cc(-c3ccccc3)nn2)O1 [ER-888604]	8.22
Cc1cc(CN2CCC(O)CC2)cc(-c2ccc(C#N)c3ncccc23)c1 [ER-888645]	7.33
Cc1cc(CN2CCC(N(C)C)CC2)cc(-c2ccc(C#N)c3ncccc23)c1 [ER-888646]	8.52
Cc1cc(CN2CCN(C)CC2)cc(-c2ccc(C#N)c3ncccc23)c1 [ER-888647]	7.92
CCc1cnc(NC[C@H]2CN(c3ccc(C#N)c4ncccc34)C[C@@H](C)O2)nc1 [ER-888701]	7.74
C[C@@H]1CN(c2ccc(C#N)c3ncccc23)C[C@H](CNc2cnccn2)O1 [ER-888896]	7.30
Cc1cc(NC[C@H]2CN(c3ccc(C#N)c4ncccc34)C[C@@H](C)O2)n(C)n1 [ER-888977]	6.66
Cc1cc(CN2CCC(N3CCCCC3)CC2)cc(-c2ccc(C#N)c3ncccc23)c1 [ER-889504]	8.70
CC1CN(c2ccc(C#N)c3ncccc23)CC(CN2CCC(CO)CC2)O1 (centres unmarked) [ER-889557]	7.07
CC1CN(c2ccc(C#N)c3ncccc23)CC(CN2CCC(N3CCCC3)C2)O1 (centres unmarked) [ER-889571]	6.00
CC1CN(c2ccc(C#N)c3ncccc23)CC(CN2CCC(NC(=O)c3cccnc3)CC2)O1 (centres unmarked) [ER-889728]	7.68
CCCCCC(=O)NC1CCN(CC2CN(c3ccc(C#N)c4ncccc34)CC(C)O2)CC1 (centres unmarked) [ER-889744]	8.10
CC1CN(c2ccc(C#N)c3ncccc23)CC(CN2CCC(NC(=O)C(C)(C)C)CC2)O1 (centres unmarked) [ER-889746]	7.14
C[C@@H]1CCN(c2ccc(C#N)c3ncccc23)C[C@H](CN2CCC(N3CCCCC3)CC2)O1 [ER-889822]	7.60
CC1CN(c2ccc(C#N)c3ncccc23)CC(CN2CC(N3CCN(C)CC3)C2)O1 (centres unmarked) [ER-890108]	8.05
CC(=O)N1CCC(C2CCN(CC3CN(c4ccc(C#N)c5ncccc45)CC(C)O3)CC2)CC1 (centres unmarked) [ER-890113]	7.66
CC1CN(c2ccc(C#N)c3ncccc23)CC(CN2CC(N3CCNCC3)C2)O1 (centres unmarked) [ER-890119]	8.10
CC(=O)N1CCN(C2CN(CC3CN(c4ccc(C#N)c5ncccc45)CC(C)O3)C2)CC1 (centres unmarked) [ER-890120]	8.30
CC(=O)N[C@@H]1CCN(C[C@H]2CN(c3ccc(C#N)c4ncccc34)C[C@@H](C)O2)C1 [ER-890252]	7.38
CC(C)C(=O)N[C@@H]1CCN(C[C@H]2CN(c3ccc(C#N)c4ncccc34)C[C@@H](C)O2)C1 [ER-890253]	7.19
CC1CN(c2ccc(C#N)c3ncccc23)CC(CN2CC(N3CCOCC3)C2)O1 (centres unmarked) [ER-890342]	6.92

Compound	pIC50
CC1CN(c2ccc(C#N)c3ncccc23)CC(CN2CCNCC2C)O1 (centres unmarked) [ER-890344]	8.70
CC1CN(c2ccc(C#N)c3ncccc23)CC(CN2CC(N3CCC(N)CC3)C2)O1 (centres unmarked) [ER-892253]	7.18
Cc1nn(C)cc1C(=O)NC1CCN(CC2CN(c3ccc(C#N)c4ncccc34)CC(C)O2)CC1 (centres unmarked) [ER-893926]	8.10
C[C@@H]1CN(c2ccc(C#N)c3ncccc23)C[C@H](CN2CCC(NS(=O)(=O)c3ccccc3)CC2)O1 [ER-894149]	7.51
CC1CN(c2ccc(C#N)c3ncccc23)CC(CN2CCC(NS(=O)(=O)c3ccc(F)cc3)CC2)O1 (centres unmarked) [ER-894150]	8.40
C[C@@H]1CN(c2ccc(C#N)c3ncccc23)C[C@H](CN2CC(NS(C)(=O)=O)C2)O1 [ER-894154]	6.84
C[C@@H]1CN(c2ccc(C#N)c3ncccc23)C[C@H](CN2CC(NS(=O)(=O)c3ccc(F)cc3)C2)O1 [ER-894155]	7.38
Cc1nn(C)cc1S(=O)(=O)NC1CN(C[C@H]2CN(c3ccc(C#N)c4ncccc34)C[C@@H](C)O2)C1 [ER-894159]	7.38
Cc1nn(C)cc1S(=O)(=O)NC1CCN(C[C@H]2CN(c3ccc(C#N)c4ncccc34)C[C@@H](C)O2)CC1 [ER-894160]	7.96
C[C@@H]1CN(c2ccc(C#N)c3ncccc23)C[C@H](CN2CCNC(=O)[C@H]2C)O1 [ER-894483]	6.68
C[C@@H]1CN(c2ccc(C#N)c3ncccc23)C[C@H](CN2CCNC(=O)[C@@H]2C)O1 [ER-894484]	6.76
CC(=O)N[C@H]1CCN(C[C@H]2CN(c3ccc(C#N)c4ncccc34)C[C@@H](C)O2)C1 [ER-894546]	7.16
CC(C)C(=O)N[C@H]1CCN(C[C@H]2CN(c3ccc(C#N)c4ncccc34)C[C@@H](C)O2)C1 [ER-894547]	7.92
C[C@@H]1CN(c2ccc(C#N)c3ncccc23)C[C@H](CN2CC[C@H](NC(=O)c3ccccc3)C2)O1 [ER-894548]	7.55
C[C@@H]1CN(c2ccc(C#N)c3ncccc23)C[C@H](CN2CC[C@H](N(C)C)C2)O1 [ER-894549]	7.85
CC1CN(c2ccc(C#N)c3ncccc23)CC(COc2cnccn2)O1 (centres unmarked) [ER-894552]	7.77
CC1CN(c2ccc(C#N)c3ncccc23)CC(C(C)O)O1 (centres unmarked) [ER-895200]	7.59
CC1CN(c2ccc(C#N)c3ncccc23)CC(C(C)O)O1 (centres unmarked) [ER-895310]	7.47
CC1CN(c2ccc(C#N)c3ncccc23)CC(COc2ccccn2)O1 (centres unmarked) [ER-895324]	9.00
CC1CN(c2ccc(C#N)c3ncccc23)CC(C(N)=O)O1 (centres unmarked) [ER-895472]	6.79
CC1CN(c2ccc(C#N)c3ncccc23)CC(C(=O)N2CCC(N3CCCCC3)CC2)O1 (centres unmarked) [ER-895477]	7.89
